In ChEMBL document CHEMBL4680146, “Current progress in antimalarial pharmacotherapy and multi-target drug discovery” (Eur J Med Chem, 2020) one finds IC50, EC50 and Activity data, which are given here for 17 compounds.

Converted amounts (≈) assume the structure as drawn.

Test [1] has as its system Plasmodium falciparum. As to the kind of experiment: Antimalarial activity against chloroquine-resistant Plasmodium falciparum T996 infected in human erythrocytes assessed as inhibition of [G-3H]hypoxanthine uptake preincubated for 24 hrs followed by [G-3H]hypoxanthine addition and measured after 18 to 24 hrs by scintillation spectrometry. Format: functional, organism-based. As to conditions: T996, Erythrocyte.

Test [2] deals with Plasmodium falciparum. As to the kind of experiment: Antimalarial activity against chloroquine-resistant Plasmodium falciparum K1 infected in human erythrocytes assessed as inhibition of [G-3H]hypoxanthine uptake preincubated for 24 hrs followed by [G-3H]hypoxanthine addition and measured after 18 to 24 hrs by scintillation spectrometry. Format: functional, organism-based. Particulars: K1, Erythrocyte.

Test [3] concerns Plasmodium falciparum. The test can be described thus: Antimalarial activity against Plasmodium falciparum infected in human erythrocytes assessed as inhibition of [G-3H]hypoxanthine uptake incubated for 42 hrs by liquid scintillation spectrometry. Format: functional, organism-based. Particulars: Erythrocyte.
Test [4] has as its system Plasmodium falciparum. As to the kind of experiment: Antimalarial activity against chloroquine-sensitive Plasmodium falciparum 3D7 infected in human red blood cells incubated for 48 hrs by [3H]-hypoxanthine incorporation assay. Format: functional, organism-based, RBC. Particulars: 3D7, Erythrocyte.
The subject of test [5] is Plasmodium falciparum. The test can be described thus: Antimalarial activity against chloroquine-sensitive Plasmodium falciparum 3D7 by SyBR Green method.
Test [6] has as its system Plasmodium falciparum. The test can be described thus: Antimalarial activity against Plasmodium falciparum 3D7 asexual forms incubated for 72 hrs by luminescence method. Format: functional, organism-based. Particulars: 3D7, 72 h.
The subject of test [7] is Plasmodium falciparum. The test can be described thus: Antimalarial activity against chloroquine-resistant Plasmodium falciparum Dd2. In kind it is functional, organism-based.
The test system of test [8] is Plasmodium falciparum. As to the kind of experiment: Antimalarial activity against chloroquine-sensitive Plasmodium falciparum F32(CQS)Tanzania incubated for 48 hrs by classical radioactive microdilution method. In kind it is functional, organism-based. A general note: In broth dilution the organism is exposed to a series of concentrations in liquid medium.
Test [9] concerns Plasmodium falciparum. As to the kind of experiment: Antimalarial activity against multi-resistant Plasmodium falciparum infected in human erythrocytes assessed as inhibition of [G-3H]hypoxanthine uptake incubated for 42 hrs by liquid scintillation counting method. As to conditions: Erythrocyte. Format: functional, organism-based.
In test [10] the test system is Plasmodium falciparum. As to the kind of experiment: Antimalarial activity against Plasmodium falciparum 3D7A asexual forms assessed as inhibition of [G-3H]hypoxanthine uptake incubated for 24 hrs followed by [G-3H]hypoxanthine addition and measured after 18 hrs by liquid scintillation spectrometry. In kind it is functional, organism-based.
In test [11] the test system is Plasmodium vivax. As to the kind of experiment: Antimalarial activity against Plasmodium vivax infected in human blood incubated for 40 to 44 hrs. Format: functional, organism-based.
Another test deals with T1, Falcipain 2 (Plasmodium falciparum, UniProt Q9N6S8).
T1 sequence (Q9N6S8 whole entry): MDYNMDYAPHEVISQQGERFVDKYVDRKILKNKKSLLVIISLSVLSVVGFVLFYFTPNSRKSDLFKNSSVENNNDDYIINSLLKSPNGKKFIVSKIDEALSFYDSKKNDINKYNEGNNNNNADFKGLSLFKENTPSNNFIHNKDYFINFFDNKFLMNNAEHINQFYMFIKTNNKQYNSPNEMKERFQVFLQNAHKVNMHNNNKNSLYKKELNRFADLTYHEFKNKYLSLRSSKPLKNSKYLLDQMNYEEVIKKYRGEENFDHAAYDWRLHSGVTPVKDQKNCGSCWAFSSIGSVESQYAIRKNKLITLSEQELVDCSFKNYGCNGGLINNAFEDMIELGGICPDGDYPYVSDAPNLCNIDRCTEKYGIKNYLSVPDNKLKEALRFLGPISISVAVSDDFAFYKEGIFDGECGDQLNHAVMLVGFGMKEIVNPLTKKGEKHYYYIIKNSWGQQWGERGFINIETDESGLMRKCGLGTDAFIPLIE
As to the kind of experiment: Inhibition of Plasmodium falciparum FP-2.

The nature of test [12]: Inhibition of Plasmodium falciparum DHFR.
Test [13] relates to Plasmodium falciparum. The test can be described thus: Antimalarial activity against trophozoite stage Plasmodium falciparum 3D7 harboring NLuc infected in human erythrocytes assessed as inhibition of new permeability pathway by measuring infected erythrocytes sensitivity to sorbitol-mediated lysis by luminescence method. Format: functional, organism-based. Particulars: 3D7, Erythrocyte.

In test [14] the test system is Plasmodium falciparum. As to the kind of experiment: Antimalarial activity against ring stage Plasmodium falciparum 3D7 measured for 72 hrs by absorbance method. Particulars: 3D7, 72 h. Format: functional, organism-based.
Test [15] can be described thus: Inhibition of Plasmodium falciparum DHODH expressed in Escherichia coli BL21(DE3) using L-dihydroorotate as substrate measured every 90 secs for 45 mins by absorbance method.
The subject of test [16] is Plasmodium vivax. As to the kind of experiment: Antimalarial activity against Plasmodium vivax infected in human blood incubated for 24 to 36 hrs. Format: functional, organism-based.
The next test relates to Hemozoin. As to the kind of experiment: Inhibition of beta-hematin assessed as heme alkylation at 2 molar equivalents incubated for 30 mins by HPLC analysis relative to control. The arrangement: scale not given: the % may be the effect or the level left.

A word on the IC50: it is the concentration that gives 50% inhibition. By EC50 is commonly meant the concentration at which the effect is half-maximal.

With `CCN(CCO)CCCC(C)Nc1ccnc2cc(Cl)ccc12` (centres undefined) [HYDROXYCHLOROQUINE], the IC50 in the test with Plasmodium falciparum [1] came out at 21.5 nM; in the test with Plasmodium falciparum [2], 2220 nM. For the compound `Clc1ccc2c(N3CCN(CCCN4CCN(c5ccnc6cc(Cl)ccc56)CC4)CC3)ccnc2c1` [PIPERAQUINE], the IC50 in the test on Plasmodium falciparum [3] was found to be 81.3 nM. The compound `C[C@@H]1CC[C@H]2[C@@H](C)C(OCCN3CC[N+](CCNc4ccnc5cc(Cl)ccc45)(CCOC4O[C@@H]5O[C@@]6(C)CC[C@H]7[C@H](C)CC[C@@H]([C@H]4C)[C@@]57OO6)CC3)O[C@@H]3O[C@@]4(C)CC[C@@H]1[C@]32OO4` (some centres undefined) registered an IC50 in the test with Plasmodium falciparum [4] of 29.5 nM.

Take `C[C@@H]1CC[C@H]2[C@@H](C)C(OCCN(CCCNc3ccnc4cc(Cl)ccc34)CCOC3O[C@@H]4O[C@@]5(C)CC[C@H]6[C@H](C)CC[C@@H]([C@H]3C)[C@@]46OO5)O[C@@H]3O[C@@]4(C)CC[C@@H]1[C@]32OO4` (some centres undefined): the half-inhibitory concentration (IC50) in the test on Plasmodium falciparum [4] was found to be 8.7 nM. In the case of `C[C@H]1[C@H](OC(=O)CCC(=O)O)O[C@@H]2O[C@@]3(C)CC[C@H]4[C@H](C)CC[C@@H]1[C@@]24OO3` [ARTESUNATE], the 50% inhibitory concentration (IC50) with Plasmodium falciparum [5] is 2 nM. Regarding `CCc1nc(N)nc(N)c1-c1ccc(Cl)cc1` [PYRIMETHAMINE], the IC50 was 4.35 nM in the test on Plasmodium falciparum [6] and above 10000 nM in the test on Plasmodium falciparum [7]. For `C[C@@H]1CC[C@H]2[C@@H](C)C(=O)O[C@@H]3O[C@@]4(C)CC[C@@H]1[C@]32OO4` [ARTEMISININ], in the test with Plasmodium falciparum [8], the IC50 was 7 nM.

On to `C[C@H]1c2cccc(O)c2C(=O)C2=C(O)[C@]3(O)C(=O)C(C(N)=O)=C(O)[C@@H](N(C)C)[C@@H]3[C@@H](O)[C@@H]21` [DOXYCYCLINE], for which, in the test with Plasmodium falciparum [9], the IC50 amounted to 5100 nM. Take `CCCCN(CCCC)CC(O)c1cc(Cl)cc2c1-c1ccc(Cl)cc1/C2=C/c1ccc(Cl)cc1` (centres undefined) [LUMEFANTRINE]: the IC50 with Plasmodium falciparum [10] came to 3.2 nM. On to `COc1ncnc(NS(=O)(=O)c2ccc(N)cc2)c1OC` [SULFADOXINE], for which the half-maximal inhibitory concentration (IC50) in the test on Plasmodium vivax [11] was 0.01 µg/mL (≈ 0.0322 µM). Regarding `COc1cc(NC(C)CCCN)c2ncccc2c1` (centres undefined) [PRIMAQUINE], in the test on Plasmodium falciparum [10], the IC50 is above 10000 nM. Consider `Nc1ncc(NCc2ccc(CCNC(=O)c3ccc(F)cc3)cc2)c(N)n1`, for which the IC50 amounted to 6800 nM against Falcipain 2, 8800 nM in test [12] and 1100 nM with Plasmodium falciparum [7]. As to `COc1cccc(NC(=O)CSc2nc(-c3ccccc3Cl)ns2)c1`, the concentration giving a half-maximal response (EC50) in the test with Plasmodium falciparum [13] came out at 367 nM; with Plasmodium falciparum [14], 2480 nM; in [15] it was 158000 nM. In the case of `O=C(Nc1ccc(-c2cn3ccsc3n2)cc1)c1ccc(S(=O)(=O)N2CCCCCC2)cc1`, the concentration giving a half-maximal response (EC50) in the test with Plasmodium falciparum [13] was 222 nM; in test [15] it was above 250000 nM.

Consider `Nc1ccc(S(=O)(=O)c2ccc(N)cc2)cc1` [DAPSONE], for which it took 1620 nM to reach half-maximal inhibition in the test with Plasmodium vivax [16] (IC50). As to `C=C[C@H]1CN2CC[C@H]1C[C@H]2[C@H](O)c1ccnc2ccc(OC)cc12` [QUININE], the IC50 in the test with Plasmodium falciparum [10] amounted to 66 nM. Take `CC(C)C1=C[C@H]2OC3(CCC(NCCNc4ccnc5cc(Cl)ccc45)CC3)OO[C@@]2(C)CC1` (some centres undefined): the Activity with Hemozoin came to 60%.
